Molecular target: T1, GCase (GBA) in human fibroblast cell line GM10915 harboring the L444P GBA mutation (Homo sapiens, UniProt P04062, L483P)
T1 construct: Human fibroblast cell line GM10915 harboring the L444P GBA mutation; host or cells: GM10915 human fibroblasts
T1 sequence (P04062 40-536 L483P): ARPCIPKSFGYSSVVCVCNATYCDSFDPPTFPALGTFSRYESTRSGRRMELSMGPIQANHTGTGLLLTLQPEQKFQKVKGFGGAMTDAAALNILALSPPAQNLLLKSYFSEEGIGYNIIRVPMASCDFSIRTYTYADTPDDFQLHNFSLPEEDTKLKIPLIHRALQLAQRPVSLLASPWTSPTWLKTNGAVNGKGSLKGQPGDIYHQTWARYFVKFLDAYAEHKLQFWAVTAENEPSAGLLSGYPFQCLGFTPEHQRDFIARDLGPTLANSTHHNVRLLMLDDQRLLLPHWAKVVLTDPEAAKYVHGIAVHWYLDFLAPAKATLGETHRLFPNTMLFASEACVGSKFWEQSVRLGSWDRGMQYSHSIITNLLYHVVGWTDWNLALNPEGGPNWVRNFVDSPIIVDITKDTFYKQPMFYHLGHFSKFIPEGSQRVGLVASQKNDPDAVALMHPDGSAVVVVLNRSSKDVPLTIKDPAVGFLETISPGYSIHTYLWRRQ
Experiment: GCase activity assay (4-MUG substrate, normalised to crystal violet staining) in L444P GBA fibroblasts
Format: cell-based
Details: 5 days exposure; for GBA EC1.5: concentration giving 150% GCase activity (1.5-fold induction), 8-point dose range; for Emax: maximum percent GCase activity relative to untreated cells in the dose range tested
Summary of the method: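 Patient fibroblasts GM10915 (L444P GBA) exposed to compounds for five days over an 8-point range, with fresh dosing every 2–3 days. Intact-cell GCase measured with 2.5 mM 4-MUG at pH 4.0 for 23 h at 37 °C (ex/em 365/445 nm), normalised to crystal violet, as % of PBS basal; Emax is the maximum reached.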

Structure (SMILES) | GBA EC1.5 [µM] | Emax [%]
F[C@H]1CN[C@H](C2=NOCC(CN3CCCCC3)O2)C1 (stereo partly shown) [compound 556] | 50 | 114
N[C@@H]1CN[C@@H](C2=NOCC(CN3CCCCC3)O2)C1 (stereo partly shown) [compound 557] | 50 | 115
N[C@H]1CN[C@@H](C2=NOCC(CN3CCCCC3)O2)C1 (stereo partly shown) [compound 564] | 50 | 104
FC(F)(F)CN1CCCC(C2=NOCC(CN3CCCCC3)O2)C1 (stereo not shown) [compound 570] | 50 | 107
FC(F)(F)CN1CCCC(CC2=NOCC(CN3CCCCC3)O2)C1 (stereo not shown) [compound 587] | 50 | 100
CN1CC(C2=NOCC(CN3CCCCC3)N2)CC1=O (stereo not shown) [compound 601] | 50 | 111
CN1[C@@H]2CC[C@H]1CN(CC1CON=C(C3(C)CCNCC3)O1)C2 (stereo partly shown) [compound 603] | 50 | 102
CN(C)CC1CON=C(C2CCN(C)C2)O1 (stereo not shown) [compound 605] | 45 | 148
CN(C)CC1CON=C(C2CCNC2)O1 (stereo not shown) [compound 615] | 50 | 108
O=C1CCC(C2=NOCC(CN3CCCCC3)O2)CN1 (stereo not shown) [compound 617] | 50 | 113
CN1CC2CC[C@H](C1)N2CC1CON=C(C2(C)CCNCC2)O1 (stereo partly shown) [compound 627] | 48 | 133
c1csc(N2CCC(C3=NOCC(CN4CCCCC4)O3)CC2)n1 (stereo not shown) [compound 635] | 50 | 135
NC(=O)N1CCC(C2=NOCC(CN3CCCCC3)O2)CC1 (stereo not shown) [compound 639] | 50 | 112

Further lines, results first:

GBA EC1.5 [µM] | Emax [%] | Structure (SMILES)
50 | 114 | CN1CC[C@@H]2CN(CC3CON=C(C4(C)CCNCC4)O3)C[C@@H]21 (stereo partly shown) [compound 555]
4 | 225 | C1CCN(CC2CON=C([C@]34CCC[C@H]3NCC4)O2)CC1 (stereo partly shown) [compound 558]
50 | 105 | CN1CC2(C1)CN(CC1CON=C(C3(C)CCNCC3)O1)C2 (stereo not shown) [compound 580]
50 | 114 | Cn1cnc(CC2(C3=NOCC(CN4CCCCC4)O3)CCNCC2)c1 (stereo not shown) [compound 582]
50 | 110 | CN1C[C@@H]2CN(CC3CON=C(C4(C)CCNCC4)O3)C[C@@H]2C1 (stereo partly shown) [compound 592]
50 | 105 | N[C@@H]1CN[C@H](C2=NOCC(CN3CCCCC3)O2)C1 (stereo partly shown) [compound 596]
50 | 106 | N[C@H]1CN[C@H](C2=NOCC(CN3CCCCC3)O2)C1 (stereo partly shown) [compound 597]
1 | 179 | Fc1cccc(C2(C3=NOCC(CN4CCCCC4)O3)CCCNC2)n1 (stereo not shown) [compound 598]
50 | 121 | CN1CCC2CN(CC3CON=C(C4(C)CCNCC4)O3)CC2C1 (stereo not shown) [compound 602]
50 | 119 | CN1CCO[C@@H]2CN(CC3CON=C(C4(C)CCNCC4)O3)C[C@@H]21 (stereo partly shown) [compound 604]
50 | 123 | Cn1ccnc1CC1(C2=NOCC(CN3CCCCC3)O2)CCNCC1 (stereo not shown) [compound 607]
50 | 119 | OC1CCC(C2=NOCC(CN3CCCCC3)O2)CC1 (stereo not shown) [compound 609]
43 | 136 | CN1CC2(C)CN(CC3CON=C(C4(C)CCNCC4)O3)CC2(C)C1 (stereo not shown) [compound 628]
11 | 247 | CN1CCC(C2=NOCC(CN3CCCCC3)O2)C1 (stereo not shown) [compound 629]
50 | 126 | FC1(F)CNCCC1C1=NOCC(CN2CCCCC2)O1 (stereo not shown) [compound 636]
50 | 111 | O=C1NCCC1C1=NOCC(CN2CCCCC2)O1 (stereo not shown) [compound 637]

From patent publication US20240390383A1, “DIOXAZINES AND THEIR USE IN TREATMENT OF GBA-RELATED DISEASES” (ZEVRA DENMARK A/S, priority 2021, published 2024)
